Reference: US20180289692A1, “TLR MODULATORS AND METHODS OF USE” (CELGENE CORPORATION, priority 2015, published 2018)
Oligonucleotides are written 5' to 3', each unit as a sugar letter and its base; * is a phosphorothioate linkage, no mark a phosphodiester; rarer units and linkages stand in square brackets, end groups in braces. Plain capitals give the bases only. d = 2'-deoxy (DNA)

How the values were obtained:
human pDCs = assay: Intracellular IL-10, TGF-β1 and IDO expression in CCR6+CD123+ human pDCs by FACS; type: cell-based; conditions: 24 hrs, FIG. 2A
Excerpt: To evaluate intracellular IL-10, TGFβ 1 and IDO expression in human pDCs, the cells were first stained with PECY-7-labeled anti-human CCR6 mAb (BD Biosciences), PerCP-Cy5.5 labeled anti-human CD123 mAb (BD Biosciences). Stained cells were then fixed and permeabilized using a Cytofix/Cytoperm kit (BD Biosciences) according to the manufacturer's instructions and stained with PE-labeled anti-human IDO (Biolegend), APC-labeled anti-human IL-10 mAb and FITC-labeled anti-human TGF-β1 (BD Biosciences), or isotype-matched control mAbs. The stained cells were acquired by FACSCanto using the FACSDiva software. FACS analysis was performed using FlowJo software. Single, viable cells in the CCR6+CD123+ pDC gates were analyzed. The flow cytometric results are expressed as the percentage and MFI of IL-10-, TGF-β1- or IDO-expressing cells in each gate. Results are expressed as the mean±SEM of cells quantified.
IL10 was alternatively measured in cellular supernatants by ELISA using standard protocols.

[1] = test system: canonical NF-κB promoter reporter; assay: Canonical NF-κB promoter reporter construct in RAW264.7 macrophage cells (FIG. 10); type: cell-based, mouse; conditions: 24 hrs
Method: Mouse RAW264.7 macrophage cells containing a reporter construct driven by a canonical NF-κB promoter were plated in 96-well plates at 50,000 cells/well. […] The supernatant was harvested and tested for optical density.

[2] = test system: canonical NF-κB promoter reporter; assay: Mouse Raw Blue Reporter Cells, SEAP reporter driven by canonical NF-κB promoter (FIG. 11); type: cell-based; conditions: mouse macrophages, 24 hrs
Method: Mouse Raw Blue Reporter Cells (Invivogen), containing a secreted embryonic alkaline phosphatase (SEAP) reporter gene driven by canonical NF-κB promoter, were plated in 96-well plates at 50,000 cells/well in DMEM Media supplemented with 10% FBS, 2 mM L-glutamine, 1% Pen/Strep, […] Normacin. […] The supernatant was harvested and tested for SEAP production by measuring OD at 630 nm.

mouse macrophages = assay: TNFα and IL-10 production in mouse macrophages (Raw Blue cells), MagPix; type: cell-based; conditions: 24 hrs
Method: Mouse Raw Blue Reporter Cells (Invivogen) were plated in 96-well plates at 50,000 cells/well in DMEM Media supplemented with 10% FBS, 2 mM L-glutamine, 1% Pen/Strep, […] Normacin. […] The supernatant was harvested and tested for TNFα and IL-10 production using MagPix Multi-Plex technology.

human PBMCs = assay: IL-1β secretion from human PBMCs by ELISA (inflammasome activation); type: cell-based; conditions: 24 hours, FIG. 15
TLR9 = molecular target: T1, TLR9 (Homo sapiens, UniProt Q9NR96); assay: NF-κB reporter gene in recombinant TLR9-expressing HEK293 cells; type: cell-based
T1 construct: expressed in transfected cells; host or cells: TLR9 expressing HEK293 reporter cells with a human NF-κB reporter construct
T1 sequence (Q9NR96 26-1032): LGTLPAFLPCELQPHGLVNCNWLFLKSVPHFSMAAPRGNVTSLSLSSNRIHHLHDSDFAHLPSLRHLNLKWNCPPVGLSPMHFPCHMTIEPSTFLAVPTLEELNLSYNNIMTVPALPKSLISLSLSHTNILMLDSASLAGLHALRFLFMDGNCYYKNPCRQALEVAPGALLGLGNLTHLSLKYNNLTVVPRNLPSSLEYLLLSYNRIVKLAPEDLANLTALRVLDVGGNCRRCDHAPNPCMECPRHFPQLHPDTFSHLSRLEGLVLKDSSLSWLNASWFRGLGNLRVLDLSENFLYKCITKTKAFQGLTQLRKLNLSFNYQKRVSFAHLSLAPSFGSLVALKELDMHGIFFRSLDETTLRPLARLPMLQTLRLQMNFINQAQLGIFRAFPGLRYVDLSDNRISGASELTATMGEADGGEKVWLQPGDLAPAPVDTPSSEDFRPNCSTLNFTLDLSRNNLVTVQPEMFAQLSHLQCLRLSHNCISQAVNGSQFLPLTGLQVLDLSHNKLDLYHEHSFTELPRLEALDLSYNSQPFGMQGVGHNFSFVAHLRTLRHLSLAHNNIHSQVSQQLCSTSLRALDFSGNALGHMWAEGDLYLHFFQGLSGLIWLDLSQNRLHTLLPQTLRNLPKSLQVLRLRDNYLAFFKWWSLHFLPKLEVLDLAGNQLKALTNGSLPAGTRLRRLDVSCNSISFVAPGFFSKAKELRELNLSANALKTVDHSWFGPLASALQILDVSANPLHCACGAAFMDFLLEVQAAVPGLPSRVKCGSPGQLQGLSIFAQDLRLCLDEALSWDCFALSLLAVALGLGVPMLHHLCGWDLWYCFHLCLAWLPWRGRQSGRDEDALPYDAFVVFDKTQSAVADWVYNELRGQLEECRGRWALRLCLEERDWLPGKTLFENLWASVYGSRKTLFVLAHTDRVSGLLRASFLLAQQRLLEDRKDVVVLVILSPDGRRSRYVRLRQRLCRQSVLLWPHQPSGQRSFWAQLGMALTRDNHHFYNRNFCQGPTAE
Method: FIGS. 16A-B show results of experiments in which recombinant TLR-expressing HEK293 cells carrying an NF-κB reporter gene were incubated with COMPOUND(I), ODN150, ODN2006, or ODN7040 for 48 hours at the indicated concentrations.

purified human pDCs = assay: pDC differentiation, differentiation markers CD86, CD83, CCR6, CCR7 by flow cytometry; type: cell-based; set-up: key: (↑) indicates a weak but detectable activity; (↑↑) and (↑↑↑) indicate different levels of moderate activities; (↑↑) and (↑↑↑) indicate different levels of moderate activities; (↑↑↑↑) indicates a strong activity; (−) indicates no detectable activity; conditions: relative strength, Table 6
[3] = test system: ulcerative colitis patients; conditions: clinical studies, subset of UC patients; cited from earlier work

ODN150: 5′-G*G*A*ACAGTTCGTCCAT*G*G*C-3′, PO except * = PS; antisense to p65 of NF-kB mRNA; tested clinically for ulcerative colitis (DNA dG*dG*dA*dAdCdAdGdTdTdCdGdTdCdCdAdT*dG*dG*dC)
TGF-β1 protein induction (human pDCs): can induce | activation of the NF-κB construct ([1]; 0.1-100 μM): Moderate activation | ODN concentration at which activation of the NF-κB construct was observed [1]: 100 µM | concentration from which the NF-κB reporter is activated [2]: 10 µM | activation of canonical NF-κB reporter ([2]; SEAP, COMPOUND (I) up to 10 μM): activate | TNFα protein expression (mouse macrophages; FIG. 12, COMPOUND (I) up to 10 μM): induce | IL-10 protein expression (mouse macrophages; FIG. 13, COMPOUND (I) up to 10 μM): induce | IL-1β induction (human PBMCs): did not induce | TLR pathway activation (NF-κB) (TLR9; Reporter Cell, relative strength, Table 6): ↑ ↑ | NF-κB reporter gene activation (TLR9; TLR9-expressing HEK293 cells, 48 hours, FIGS. 16A-B): concentration-dependent NF-kB induction | pDC differentiation (purified human pDCs): ↑ | clinical effect in ulcerative colitis [3]: some moderate beneficial effects
